Measurements taken from article PMC8296573, “Synthesis and Biological Evaluation of Fingolimod Derivatives as Antibacterial Agents” (ACS Omega, 2021).
Converted amounts (≈) assume the structure as drawn. Like-named read-outs stand apart in the source and are kept apart here.

What was measured:
[1] = tested on: S. aureus ATCC 25923; test: Antibacterial activity, post-exposure on preformed 18-h-old biofilms; type: cell-based, Staphylococcus aureus; conditions: ± SD; for inhibition at 25 µM / inhibition at 50 µM / inhibition at 100 µM / inhibition at 200 µM: Staphylococcus aureus; for inhibition at 25 µM: ATCC25923, 25 µM; for inhibition at 50 µM: ATCC25923, 50 µM; for inhibition at 100 µM: ATCC25923, 100 µM; for inhibition at 200 µM: ATCC25923, 200 µM
Summary of the method: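 Biofilms grown 18 h without compound, medium then replaced and compound added for a further 24 h. Planktonic OD and resazurin (20 μM final) fluorescence (ex 560/em 590 nm) read; washed biofilms stained with 20 μM resazurin 30 min at 37 °C, then ethanol-fixed and crystal violet-stained, absorbance 595 nm.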

[2] = tested on: A. baumannii NCTC 13423; test: Antibacterial activity, pre-exposure; type: cell-based, Acinetobacter baumannii; conditions: for Average inhibition %, biofilms viability / Average inhibition %, planktonic cells viability / inhibition at 10 µM / inhibition at 15 µM / inhibition at 25 µM / inhibition at 50 µM: A. baumannii NCTC 13423, pre-exposure, ± SD; for inhibition at 10 µM / inhibition at 15 µM / inhibition at 25 µM / inhibition at 50 µM: Acinetobacter baumannii, NCTC13423
Summary of the method: (§1)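 Growth prevention was tested by adding compounds together with the inoculum. Plates were incubated 18 h at 37 °C. Viability was read by resazurin fluorescence and biomass by crystal violet absorbance at 595 nm.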

[3] = tested on: P. aeruginosa ATCC 9027; test: Antibacterial activity, pre-exposure; type: cell-based, Pseudomonas aeruginosa; conditions: for Average inhibition %, biofilms viability / Average inhibition %, planktonic cells viability / inhibition at 50 µM / inhibition at 100 µM / inhibition at 150 µM / inhibition at 200 µM: P. aeruginosa ATCC 9027, pre-exposure, ± SD; for inhibition at 50 µM / inhibition at 100 µM / inhibition at 150 µM / inhibition at 200 µM: Pseudomonas aeruginosa, ATCC9027
Summary of the method: as §1

[4] = tested on: S. aureus ATCC 25923; test: Antibacterial activity, pre-exposure (planktonic cells and biofilm formation); type: cell-based, Staphylococcus aureus; conditions: for MIC / inhibition at 5 µM / inhibition at 10 µM / inhibition at 15 µM / inhibition at 25 µM: Staphylococcus aureus, ATCC25923; for inhibition at 5 µM / inhibition at 10 µM / inhibition at 15 µM / inhibition at 25 µM / Average inhibition %, biofilms viability / Average inhibition %, planktonic cells viability: pre-exposure, ± SD
Summary of the method: as §1

[5] = read-out: Average inhibition %, biofilms biomass
[6] = read-out: Average inhibition %, planktonic cells turbidity
[7] = 10 µM, read-out: Average inhibition %, biofilms biomass
[8] = 10 µM, read-out: Average inhibition %, planktonic cells turbidity
[9] = 15 µM, read-out: Average inhibition %, biofilms biomass
[10] = 15 µM, read-out: Average inhibition %, planktonic cells turbidity
[11] = 25 µM, read-out: Average inhibition %, biofilms biomass
[12] = 25 µM, read-out: Average inhibition %, planktonic cells turbidity
[13] = 50 µM, read-out: Average inhibition %, biofilms biomass
[14] = 50 µM, read-out: Average inhibition %, planktonic cells turbidity

With CCCCCc1ccc(-c2ccc(CCC(N)(CO)CO)cc2)cc1 [Compound 15, 2-Amino-2-[2-(4′-pentyl-[1,1′-biphenyl]-4-yl)ethyl]propane-1,3-diol] the “Average inhibition %, biofilms viability” value ([1]; 25 µM) was 19 ± 6.6%, the “Average inhibition %, planktonic cells viability” value ([1]; 25 µM) was 3.6 ± 6.3% and the “Average inhibition %, biofilms viability” value ([1]; 50 µM) was 30.8 ± 8.5%. For the same compound, the “Average inhibition %, planktonic cells viability” value ([1]; 50 µM) was 1.2 ± 2.1%, the “Average inhibition %, biofilms viability” value ([1]; 100 µM) was 31.9 ± 6.2% and the “Average inhibition %, planktonic cells viability” value ([1]; 100 µM) was 3.8 ± 6.6%. The “Average inhibition %, biofilms viability” value ([1]; 200 µM) was 38.7 ± 13.3%, the “Average inhibition %, planktonic cells viability” value ([1]; 200 µM) was 29.1 ± 25.2% and the inhibition at 25 µM [1, 5] was 34.9 ± 12.7%. For the same compound, the inhibition at 25 µM [1, 6] was 16.8 ± 10%, the inhibition at 50 µM [1, 5] was 44.9 ± 6.2% and the inhibition at 50 µM [1, 6] was 14.7 ± 13.4%. It also gave an inhibition at 100 µM [1, 5] of 43.6 ± 7.8%, an inhibition at 100 µM [1, 6] of 17.9 ± 1.1% and an inhibition at 200 µM [1, 5] of 45.5 ± 18.5%. For the same compound, the inhibition at 200 µM [1, 6] was 47.4 ± 13.9%, the “Average inhibition %, biofilms viability” value ([2]; 10 µM) was 0 ± 0% and the “Average inhibition %, planktonic cells viability” value ([2]; 10 µM) was 11 ± 1.5%. For the same compound, the “Average inhibition %, biofilms viability” value ([2]; 15 µM) was 1 ± 1.5%, the “Average inhibition %, planktonic cells viability” value ([2]; 15 µM) was 8.7 ± 2.5% and the “Average inhibition %, biofilms viability” value ([2]; 25 µM) was 2.8 ± 2.6%. For the same compound, the “Average inhibition %, planktonic cells viability” value ([2]; 25 µM) was 7.8 ± 6.9%, the “Average inhibition %, biofilms viability” value ([2]; 50 µM) was 7.1 ± 0.8% and the “Average inhibition %, planktonic cells viability” value ([2]; 50 µM) was 0 ± 0%. For the same compound, the inhibition at 10 µM [2, 7] was 0%, the inhibition at 10 µM [2, 8] was 0% and the inhibition at 15 µM [2, 9] was 0.8 ± 1.4%. The inhibition at 15 µM [2, 10] was 0%, the inhibition at 25 µM [2, 11] was 0% and the inhibition at 25 µM [2, 12] was 0%. The inhibition at 50 µM [2, 13] was 4.8 ± 4.9%, the inhibition at 50 µM [2, 14] was 0% and the “MIC A. baumannii NCTC 13423” value ([2]; pre-exposure, Inactive = no activity up to 50 μM, > = some inhibition but no MIC reached) was “Inactive”. For the same compound, the “Average inhibition %, biofilms viability” value ([3]; 50 µM) was 0 ± 0%, the “Average inhibition %, planktonic cells viability” value ([3]; 50 µM) was 22.3 ± 2% and the “Average inhibition %, biofilms viability” value ([3]; 100 µM) was 0 ± 0%. For the same compound, the “Average inhibition %, planktonic cells viability” value ([3]; 100 µM) was 12 ± 14%, the “Average inhibition %, biofilms viability” value ([3]; 150 µM) was 0.5 ± 0.8% and the “Average inhibition %, planktonic cells viability” value ([3]; 150 µM) was 5.5 ± 6.3%. The “Average inhibition %, biofilms viability” value ([3]; 200 µM) was 0 ± 0%, the “Average inhibition %, planktonic cells viability” value ([3]; 200 µM) was 7.2 ± 6.3% and the inhibition at 50 µM [3, 13] was 2.2 ± 2.2%. For the same compound, the inhibition at 50 µM [3, 14] was 12.6 ± 9.1%, the inhibition at 100 µM ([3]; 100 µM, read-out: Average inhibition %, biofilms biomass) was 3.7 ± 3% and the inhibition at 100 µM ([3]; 100 µM, read-out: Average inhibition %, planktonic cells turbidity) was 11.3 ± 12.7%. It also gave an inhibition at 150 µM ([3]; 150 µM, read-out: Average inhibition %, biofilms biomass) of 4.4 ± 1.9%, an inhibition at 150 µM ([3]; 150 µM, read-out: Average inhibition %, planktonic cells turbidity) of 15.7 ± 13.7% and an inhibition at 200 µM ([3]; 200 µM, read-out: Average inhibition %, biofilms biomass) of 12 ± 10.7%. For the same compound, the inhibition at 200 µM ([3]; 200 µM, read-out: Average inhibition %, planktonic cells turbidity) was 13.7 ± 14.3%, the “MIC P. aeruginosa ATCC 9027” value ([3]; pre-exposure, Inactive = no activity up to 200 μM, > = some inhibition but no MIC reached) was “Inactive” and the “Initial screening result (active = at least 60% inhibition of planktonic cells and biofilm formation)” value ([4]; 50 μM, S. aureus) was “active”. It also gave an MIC ([4]; lowest concentration with no visible growth (>90% inhibition of turbidity and viability of planktonic cells), 18 h, read-out: MIC S. aureus ATCC 25923) of 25 to 100 µM (≈ 8.54 to 34.1 µg/mL), an inhibition at 5 µM ([4]; 5 µM, read-out: Average inhibition %, biofilms biomass) of 44.4 ± 15% and an inhibition at 5 µM ([4]; 5 µM, read-out: Average inhibition %, planktonic cells turbidity) of 44.9 ± 12.3%. The inhibition at 10 µM [4, 7] was 68.5 ± 20.6%, the inhibition at 10 µM [4, 8] was 70.3 ± 19.8% and the inhibition at 15 µM [4, 9] was 75.8 ± 18.7%. The inhibition at 15 µM [4, 10] was 72.5 ± 23.2%, the inhibition at 25 µM [4, 11] was 70.7 ± 26.8% and the inhibition at 25 µM [4, 12] was 76.5 ± 19.4%. The MIC ([4]; read-out: MIC (S. aureus)) was 25 to 100 µM (≈ 8.54 to 34.1 µg/mL), the “Average inhibition %, biofilms viability” value ([4]; 5 µM) was 42.5 ± 7.6% and the “Average inhibition %, planktonic cells viability” value ([4]; 5 µM) was 2.6 ± 4.5%. For the same compound, the “Average inhibition %, biofilms viability” value ([4]; 10 µM) was 71.3 ± 19.4%, the “Average inhibition %, planktonic cells viability” value ([4]; 10 µM) was 50.9 ± 46% and the “Average inhibition %, biofilms viability” value ([4]; 15 µM) was 70.4 ± 24.5%. For the same compound, the “Average inhibition %, planktonic cells viability” value ([4]; 15 µM) was 33.2 ± 57.6%, the “Average inhibition %, biofilms viability” value ([4]; 25 µM) was 79.3 ± 18.7% and the “Average inhibition %, planktonic cells viability” value ([4]; 25 µM) was 33.1 ± 57.3%.
